From EP4810052A2, “HCRHR2 SELECTIVE POLYPEPTIDES” (Gubra A/S, priority 2023, dated 2026)
pEC50: −log10 of the molar value. Where two headings read alike, the source gives them in different places. Marks after values point to notes of the source that are not given here. Starred links: 1 amine or outer side, 2 acyl side, 3 side chain; linkers in the order of their positions; H or OH if unused. Non-standard residues stand in square brackets, D forms with d. Residues, ends and D or L forms follow the SMILES beside them. Groups on a side chain read outwards from the residue. *: point of attachment. C20 diacid = O=C(O)CCCCCCCCCCCCCCCCCCC(=O)*; γGlu = O=C(O)[C@H](CCC(=O)[*:2])N[*:1]; NMeI = CC[C@H](C)[C@H](NC)C(=O)O; Nle = CCCC[C@H](N)C(=O)O; AEEA = NCCOCCOCC(=O)O

Columns and labels:
hCRHR2 = biological target: T1, hCRHR2 (Homo sapiens, UniProt Q13324); experiment: HTRF cAMP assay, determination of hCRHR2 potency (peptide libraries 5 conc., purified peptides 11 conc.); type: cell-based; conditions: for pEC50: read-out: hCRHR2 EC50
T1 sequence (Q13324 1-411): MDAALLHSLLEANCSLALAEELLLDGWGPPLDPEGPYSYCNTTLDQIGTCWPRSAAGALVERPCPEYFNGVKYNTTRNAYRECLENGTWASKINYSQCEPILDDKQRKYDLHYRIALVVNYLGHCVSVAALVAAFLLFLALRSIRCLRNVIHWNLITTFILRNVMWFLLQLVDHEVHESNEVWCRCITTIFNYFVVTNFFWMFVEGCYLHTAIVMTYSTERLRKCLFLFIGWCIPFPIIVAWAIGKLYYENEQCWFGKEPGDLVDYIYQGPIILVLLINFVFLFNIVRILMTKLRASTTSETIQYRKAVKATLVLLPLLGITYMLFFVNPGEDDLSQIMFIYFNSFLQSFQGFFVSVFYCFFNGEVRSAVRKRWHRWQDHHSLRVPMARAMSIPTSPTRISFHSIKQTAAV
Outline: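 CHO-K1 cells stably expressing human CRHR2, thawed from frozen stocks just before use and run in suspension; cAMP measured by competitive HTRF immunoassay (cryptate anti-cAMP, d2-cAMP). Agonist peptides tested at 5 (libraries) or 11 (purified) concentrations; EC50 from sigmoid variable-slope nonlinear regression.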

hCRHR1 = biological target: T2, hCRHR1 (Homo sapiens, UniProt P34998); experiment: HTRF cAMP assay, determination of hCRHR1 potency (peptide libraries 5 conc., purified peptides 11 conc.); type: cell-based; conditions: read-out: hCRHR1 EC50
T2 sequence (P34998 24-415): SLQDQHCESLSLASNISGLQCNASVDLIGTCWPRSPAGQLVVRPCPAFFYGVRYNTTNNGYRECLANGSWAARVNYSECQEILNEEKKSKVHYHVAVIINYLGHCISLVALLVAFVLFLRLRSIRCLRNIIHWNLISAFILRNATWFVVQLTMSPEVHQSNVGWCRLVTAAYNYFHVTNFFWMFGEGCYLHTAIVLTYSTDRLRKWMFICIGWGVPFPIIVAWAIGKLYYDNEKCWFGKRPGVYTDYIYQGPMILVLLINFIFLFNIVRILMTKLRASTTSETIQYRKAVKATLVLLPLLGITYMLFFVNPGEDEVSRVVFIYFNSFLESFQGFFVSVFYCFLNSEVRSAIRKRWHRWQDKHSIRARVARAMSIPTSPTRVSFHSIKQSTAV
Outline: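 CHO-K1 cells stably expressing human CRHR1, thawed from frozen stocks just before use, were stimulated in suspension with agonist peptides. cAMP was measured by HTRF competitive immunoassay (cryptate anti-cAMP antibody vs d2-cAMP).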

PK in rats = type: in vivo; set-up: T½ / MRT: unit not given here; conditions: Rat
Outline: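 Lean male Sprague Dawley rats (n = 3 per group) got a two-peptide combination at 50 nmol/kg IV and SC. Plasma was sampled from 0.17 to 96 h post dose and analysed by LC-MSMS. PK parameters came from non-compartmental analysis.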

[1] = Effect on acute food intake in mice; type: in vivo; conditions: single subcutaneous dose
Outline: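 Male NMRI mice (n=7-8 per group) were fasted from six hours before the dark phase. They received a single subcutaneous peptide dose one hour before dark onset. Hourly food intake was monitored for 72 h and expressed as percent reduction versus vehicle, analysed by one-way ANOVA with Dunnett's test.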

[2] = pH 7.5

SMILES | Selectivity ratio (hCRHR1/ hCRHR2) (hCRHR2; hCRHR1-EC50/hCRHR2-EC50) | pEC50 (hCRHR2; purified peptides, CHO-K1 cells stably expressing hCRHR2, cAMP HTRF) | pEC50 (hCRHR1; purified peptides, CHO-K1 cells stably expressing hCRHR1, cAMP HTRF) | MRT (PK in rats) | T½ (PK in rats) | % FI compared to vehicle, 24 h post-dosing ([1]; 30 nmol/kg) | % FI compared to vehicle, 24 h post-dosing ([1]; 100 nmol/kg) | % FI compared to vehicle, 24 h post-dosing ([1]; 300 nmol/kg) | Solubility pH 7.5, target conc. =10 mg/mL (measured mg/mL) [2] [mg/mL] | Selectivity ratio (hCRHR1/ hCRHR2) (hCRHR2; Table 5) | pEC50 (hCRHR2; Table 5, purified peptides) | pEC50 (hCRHR1; Table 5, purified peptides)
CC[C@H](C)[C@H](N)C(=O)N[C@H](C(=O)N[C@@H](CC(C)C)C(=O)N[C@@H](CO)C(=O)N[C@@H](CC(C)C)C(=O)N[C@@H](CC(=O)O)C(=O)N[C@H](C(=O)N1CCC[C@H]1C(=O)N[C@H](C(=O)NCC(=O)N[C@@H](CC(C)C)C(=O)N[C@@H](CC(C)C)C(=O)N[C@@H](CCC(N)=O)C(=O)N[C@H](C(=O)N[C@@H](CC(C)C)C(=O)N[C@@H](CC(C)C)C(=O)N[C@@H](CCC(=O)O)C(=O)N[C@@H](CCC(N)=O)C(=O)N[C@@H](C)C(=O)N[C@@H](CCCNC(=N)N)C(=O)N[C@@H](C)C(=O)N[C@@H](CCCNC(=N)N)C(=O)N[C@@H](C)C(=O)N[C@@H](C)C(=O)N[C@@H](CCCNC(=N)N)C(=O)N[C@@H](CCC(=O)O)C(=O)N[C@@H](CCC(N)=O)C(=O)N[C@@H](C)C(=O)N[C@@H](CCCCNC(=O)COCCOCCNC(=O)COCCOCCNC(=O)CC[C@H](NC(=O)CC[C@H](NC(=O)CCCCCCCCCCCCCCCCCCC(=O)O)C(=O)O)C(=O)O)C(=O)N[C@@H](CCC(=O)O)C(=O)N[C@@H](CC(N)=O)C(=O)N[C@@H](C)C(=O)N[C@@H](CCC(=O)O)C(=O)N[C@H](C(=O)N[C@@H](CC(C)C)C(=O)N[C@@H](C)C(=O)N[C@@H](CCC(=O)O)C(=O)N[C@H](C(N)=O)C(C)C)[C@@H](C)CC)[C@@H](C)CC)[C@@H](C)CC)C(C)C)C(C)C [SEQ ID NO: 17] (H-IVLSLDVPIGLLQILLEQARARAAREQAK([AEEA-AEEA-γGlu-γGlu-C20 diacid])ENAEILAEV-NH2) | >2381 | 8.68 | < 5.30 | 7.6 | 7.1 | 78.97* % | 48.64*** % | 19.52*** % | 9.2 |  |  | 
CCCC[C@H](NC(=O)[C@@H](NC(=O)[C@H](CCC(=O)O)NC(=O)[C@H](C)NC(=O)[C@H](CC(N)=O)NC(=O)[C@H](CCC(=O)O)NC(=O)[C@H](CCCCNC(=O)COCCOCCNC(=O)COCCOCCNC(=O)CC[C@H](NC(=O)CC[C@H](NC(=O)CCCCCCCCCCCCCCCCCCC(=O)O)C(=O)O)C(=O)O)NC(=O)[C@H](C)NC(=O)[C@H](CCC(N)=O)NC(=O)[C@H](CCC(=O)O)NC(=O)[C@H](CCCNC(=N)N)NC(=O)[C@H](C)NC(=O)[C@H](C)NC(=O)[C@H](CCCNC(=N)N)NC(=O)[C@H](C)NC(=O)[C@H](CCCNC(=N)N)NC(=O)[C@H](C)NC(=O)[C@H](CCC(N)=O)NC(=O)[C@H](CO)NC(=O)[C@H](CC(C)C)NC(=O)[C@H](CC(C)C)NC(=O)[C@@H](NC(=O)[C@H](CCC(N)=O)NC(=O)[C@H](CC(C)C)NC(=O)[C@H](CC(C)C)NC(=O)CNC(=O)[C@@H](NC(=O)[C@@H]1CCCN1C(=O)[C@@H](NC(=O)[C@H](CC(=O)O)NC(=O)[C@H](CC(C)C)NC(=O)[C@H](CO)NC(=O)[C@H](CC(C)C)NC(=O)[C@@H](NC(=O)[C@@H](NC)[C@@H](C)CC)C(C)C)C(C)C)[C@@H](C)CC)[C@@H](C)CC)[C@@H](C)CC)C(=O)N[C@@H](C)C(=O)N[C@@H](CCC(=O)O)C(=O)N[C@H](C(N)=O)C(C)C [compound 101] (H-[NMeI]VLSLDVPIGLLQILLSQARARAAREQAK([AEEA-AEEA-γGlu-γGlu-C20 diacid])ENAEI[Nle]AEV-NH2) |  |  |  | 6.8 | 6.5 | 30.85*** % | 21.44*** % | 8.09*** % | 11 | 5435 | 9.04 | < 5.30
